Assays:
ALOMY = assay: Post-emergence herbicidal action against ALOMY; format: in vivo, Alopecurus myosuroides; details: application rate 80 g/ha, rated visually after about 3 weeks
Experimental: (§1) [table] 2. Post-emergence herbicidal action against harmful plants and crop plant compatibility Seeds of monocotyledonous and dicotyledonous weeds and crop plants are placed in sandy loam in plastic or wood-fibre pots, covered with soil and cultivated in a greenhouse under controlled growth conditions. 2 to 3 weeks after sowing, the test plants are treated at the one-leaf stage. The compounds of the invention, formulated in the form of wettable powders (WP) or as emulsion concentrates (EC), are then sprayed onto the green parts of the plants as aqueous suspension or emulsion with addition of 0.5% additive at a water application rate of 600 l/ha (converted). After the test plants have been kept in the greenhouse under optimum growth conditions for about 3 weeks, the activity of the preparations is rated visually in comparison to untreated controls. For example, 100% activity=the plants have died, 0% activity=like control plants.

AVEFA = assay: Post-emergence herbicidal action against AVEFA; format: in vivo, Avena fatua; details: application rate 80 g/ha, rated visually after about 3 weeks
Experimental: as §1

ECHCG = assay: Post-emergence herbicidal action against ECHCG; format: in vivo, Echinochloa crus-galli; details: application rate 80 g/ha, rated visually after about 3 weeks
Experimental: as §1

LOLRI = assay: Post-emergence herbicidal action against LOLRI; format: in vivo, Lolium rigidum; details: application rate 80 g/ha, rated visually after about 3 weeks
Experimental: as §1

SETVI = assay: Post-emergence herbicidal action against SETVI; format: in vivo, Setaria viridis; details: application rate 80 g/ha, rated visually after about 3 weeks
Experimental: as §1

AMARE = assay: Post-emergence herbicidal action against AMARE; format: in vivo, Amaranthus retroflexus; details: application rate 80 g/ha, rated visually about 3 weeks after treatment
Experimental: as §1

POLCO = assay: Post-emergence herbicidal action against POLCO; format: in vivo, Polygonum convolvulus; details: application rate 80 g/ha, rated visually about 3 weeks after treatment
Experimental: as §1

STEME = assay: Post-emergence herbicidal action against STEME; format: in vivo, Stellaria media; details: application rate 80 g/ha, rated visually about 3 weeks after treatment
Experimental: as §1

HORMU = assay: Post-emergence herbicidal action against HORMU; format: in vivo, Hordeum murinum; details: application rate 80 g/ha
Experimental: as §1

VERPE = assay: Post-emergence herbicidal action against VERPE; format: in vivo, Veronica persica; details: application rate 80 g/ha
Experimental: as §1

ABUTH = assay: Post-emergence herbicidal action against ABUTH; format: in vivo, Abutilon theophrasti; details: application rate 80 g/ha, rated visually about 3 weeks after treatment
Experimental: as §1

Row | SMILES | Herbicidal action against [%] ALOMY (ALOMY) | Herbicidal action against [%] AVEFA (AVEFA) | Herbicidal action against [%] ECHCG (ECHCG) | Herbicidal action against [%] LOLRI (LOLRI) | Herbicidal action against [%] SETVI (SETVI) | Herbicidal action against [%] AMARE (AMARE) | Herbicidal action against [%] POLCO (POLCO) | Herbicidal action against [%] STEME (STEME) | Herbicidal action against [%] HORMU (HORMU) | Herbicidal action against [%] VERPE (VERPE) | Herbicidal action against [%] ABUTH (ABUTH)
1 | O=C(OCCCl)[C@@H]1C=C[C@H](NC(=O)C2(C(F)(F)F)CC(c3ccccc3)=NO2)C1 (stereo partly drawn) [Example I-025] | 90% | 90% | 80% | 90% | 90% | 90% | 100% | 80% | 80% | – | –
2 | C=CC1(C(=O)N[C@H]2C=C[C@H](C(=O)N3CCCCO3)C2)CC(c2cc(F)cc(F)c2)=NO1 (stereo partly drawn) [II-29] | – | 80% | 90% | 90% | 80% | 80% | 80% | – | 80% | 80% | –
3 | C=CC1(C(=O)NC2C=CC(C(=O)NC(C)(C)C#N)C2)CC(c2cc(F)cc(F)c2)=NO1 (mixture of isomers) [II-20] | – | 100% | – | – | – | – | – | 80% | – | – | –
4 | COC(=O)C(C)(C)NC(=O)C1C=CC(NC(=O)C2(C)CC(c3cc(F)cc(F)c3)=NO2)C1 (mixture of isomers) [II-09] | – | 90% | – | 80% | – | – | 90% | – | – | – | –
5 | C=CC1(C(=O)NC2C=CC(C(=O)N3CCCCO3)C2)CC(c2cc(F)cc(F)c2)=NO1 (mixture of isomers) [II-30] | 100% | 100% | 90% | 90% | 80% | 80% | 90% | – | – | 80% | 80%
6 | C=CC1(C(=O)NC2C=CC(C(=O)OC(C)C)C2)CC(c2cc(F)cc(F)c2)=NO1 (mixture of isomers) [Example I-034] | 90% | 90% | 80% | 100% | 80% | – | 80% | 90% | 90% | 90% | 80%
7 | COC(=O)CS(=O)(=O)NC(=O)C1C=CC(NC(=O)C2(C(F)(F)F)CC(c3cc(F)cc(F)c3)=NO2)C1 (stereo not drawn) [II-39] | 80% | 90% | – | 80% | – | 80% | – | – | 80% | 80% | –
8 | Cc1cc(C)cc(C2=NOC(C(=O)NC3C=CC(C(=O)OCCCl)C3)(C(F)(F)F)C2)c1 (mixture of isomers) [Example I-056] | 100% | 90% | 80% | 90% | 80% | 80% | 80% | 90% | 80% | 80% | –
9 | Cc1cc(C2=NOC(C(=O)NC3C=CC(C(=O)OCC(F)(F)F)C3)(C(F)(F)F)C2)cc(C(F)(F)F)c1 (mixture of isomers) [Example I-050] | 90% | 90% | – | – | – | 80% | – | – | 90% | – | 80%
10 | C=CC1(C(=O)NC2C=CC(C(=O)NC(C(=O)OC)C(C)C)C2)CC(c2cc(F)cc(F)c2)=NO1 (mixture of isomers) [II-25] | 80% | 90% | 80% | 90% | – | 80% | 80% | – | 100% | – | –
11 | C=CC1(C(=O)NC2C=CC(C(=O)OC)C2)CC(c2cc(F)cc(F)c2)=NO1 (mixture of isomers) [Example I-035] | 90% | 90% | 90% | 90% | 80% | 80% | 80% | 90% | 90% | 80% | 80%
12 | C=CC1(C(=O)NC2C=CC(C(=O)NC(C)(C)C(=O)OC)C2)CC(c2cc(F)cc(F)c2)=NO1 (stereo not drawn) [II-21] | – | – | – | – | – | – | 80% | – | – | – | –
13 | COCCOC(=O)C1C=CC(NC(=O)C2(C)CC(c3cccc(C#N)c3)=NO2)C1 (mixture of isomers) [Example I-081] | – | 100% | – | 100% | 80% | 80% | 90% | 90% | 100% | 80% | 80%
14 | CCOC(=O)C1C=CC(NC(=O)C2(C(F)(F)F)CC(c3cc(OC)cc(OC)c3)=NO2)C1 (mixture of isomers) [Example I-043] | 90% | 90% | 80% | 90% | 80% | 80% | – | 80% | 80% | 80% | 80%
15 | CC(C)(C)OC(=O)C1C=CC(NC(=O)C2(C(F)(F)F)CC(c3cc(F)cc(F)c3)=NO2)C1 (mixture of isomers) [Example I-066] | 90% | 90% | 80% | 90% | 90% | 90% | 80% | – | 90% | 80% | –
16 | C=CC1(C(=O)NC2C=CC(C(=O)NC(C#N)C(C)C)C2)CC(c2cc(F)cc(F)c2)=NO1 (mixture of isomers) [II-17] | 80% | – | – | – | – | – | – | – | – | – | –
17 | CC1(C(=O)NC2C=CC(C(=O)OCCCl)C2)CC(c2cccc(C#N)c2)=NO1 (mixture of isomers) [Example I-079] | 90% | 90% | 80% | – | 90% | 90% | 90% | 80% | 100% | 90% | 80%
18 | CCOC(=O)C1C=CC(NC(=O)C2(C)CC(c3cccc(C#N)c3)=NO2)C1 (mixture of isomers) [Example I-069] | 90% | 90% | 90% | 90% | 80% | 80% | 80% | 80% | 90% | 80% | 80%
19 | C=CC1(C(=O)NC2C=CC(C(=O)N3CCCO3)C2)CC(c2cc(F)cc(F)c2)=NO1 (stereo not drawn) [II-27] | 90% | 90% | 90% | 90% | 80% | 80% | 90% | 90% | 80% | 90% | –
20 | C=CC1(C(=O)NC2C=CC(C(=O)NC(C)(C)C(=O)OC)C2)CC(c2cc(F)cc(F)c2)=NO1 (stereo not drawn) [II-22] | 80% | 90% | – | 90% | – | – | – | 80% | 90% | 80% | –

— patent publication US12319664B2, “Herbicidally active 3-phenylisoxazoline-5-carboxamides of cyclopentenylcarboxylic acid derivatives” (Bayer Aktiengesellschaft, priority 2018, dated 2025)
